# According to US20250319139A1, “METHODS FOR TREATING NEUROINFLAMMATION” (University of Virginia Patent Foundation, priority 2021, published 2025):
# Key:
# C57BL/6J mice = experiment: Novel object recognition test, young adult mice; format: in vivo, mouse
# C3 = C3 in the hippocampus by ELISA; format: in vivo, mouse
# Method: IL-1β, IL-6, C3 and GDNF in the hippocampus were detected by using ELISA kits. For testing the IL-1β, IL-6 and GDNF, brain tissues were homogenized on ice in the RIPA buffer containing 25 mM Tris-HCl with pH 7.6, 150 mM NaCl, 1% sodium deoxycholate, 0.1% SDS and a protease inhibitor cocktail containing 10 mg/ml aproteinin, 5 mg/ml peptastin, 5 mg/ml leupetin and 1 mM phenylmethane sulfonylfluoride. For C3 testing, brain tissues were homogenized on ice in the PTR buffer (supplied in the kit). The supernatant was collected for ELISA detection after the homogenate was centrifuged at 13,000 g for 20 min at 4° C. and the protein concentration was determined by the BCA protein assay (Bio-Rad, Hemel Hempstead, Herts, UK). IL-1β, IL-6, C3 and GDNF in supernatant of brain were detected according to the manufacturer's instruction for ELISA, and the amount of them in each sample in the brain was normalized by its total protein content and was expressed as pg/mg protein.
# Iba-1 = Iba-1 immunofluorescent staining of hippocampus; format: in vivo, mouse; settings: young adult mice with exercise and surgery; intraperitoneal valeric acid
# Method: The immunofluorescent labeling and quantification of the staining were performed as described before. Briefly, brain was fixed in 4% paraformaldehyde at 4° C. for 24 h and then incubated in 30% sucrose over night at 4° C. before being frozen in optimal cutting temperature compound. Coronal 20-μm thick sections were cut sequentially from Bregma -3 to -6 mm by using a cryostat and mounted on microscope slides. After being washed in Tris-buffered saline (TBS), sections were blocked in 10% donkey serum plus 1% bovine serum albumin (BSA) in TBS containing 0. 3% triton-X 100 for 2 h at room temperature and then incubated at 4° C. overnight with the following primary antibodies: rabbit monoclonal anti-C3 antibody (1:50), goat monoclonal anti-GFAP antibody (1:200), rat monoclonal anti-[…] antibody (1:50) and rabbit monoclonal anti-Iba-1 antibody (1:200). Sections were rinsed in TBS with 0.1% Triton-x 100. […] The quantification was performed as described previously. […] The number of pixels per image with intensity above a predetermined threshold level was considered as a positively stained area for an interested marker and quantified using the Image-pro plus 6.0 (Media Cybernetics, Inc., Rockville, MD, USA) and presented as percentage of positive area in the total area. […] All quantitative analyses were performed in a blinded manner.
# IL-6 = experiment: ELISA of IL-6 in the serum; format: in vivo, mouse; settings: young mice, 100 mg/kg intraperitoneal 1 h before and 6 h after 120-min MCAO; 24 h after MCAO; vs saline
# Method: (§1) Mice were weighed and anesthetized with isoflurane at 24 h after MCAO. Blood samples were obtained from the right heart after thoracotomy. Blood was centrifuged (13,000 g, 4° C.) after it had been placed at 4° C. for 2 h for the collection of serum. After the collection of blood, mice were perfused with 4° C. saline for brain tissue harvesting. The cerebral cortex (anteroposterior: −1.5 to 2.5 mm, mediolateral: 1.0 to 3.0 mm) was dissected out. All dissection procedures were performed on ice.
# IL-10, IL-17, IL-1β and IL-6 in the serum and brain were detected by using ELISA kits (catalog number: M1000B, M1700, MLB00C and D6050, R&D SYSTEM, Inc., Minneapolis, MN, USA) as we described before. The brain tissues were homogenized on ice in the RIPA buffer containing 25 mM Tris-HCl with pH 7.6, 150 mM NaCl, 1% sodium deoxycholate and 0.1% SDS (catalog number: 89901, Thermo Scientific, Rockford, IL, USA) and a protease inhibitor cocktail containing 10 mg/ml aproteinin, 5 mg/ml peptastin, 5 mg/ml leupetin and 1 mM phenylmethane sulfonylfluoride (catalog number: SRE0055, Sigma-Aldrich, St. Louis, MO, USA). The supernatant was collected for ELISA detection after being centrifuged for 20 min (13,000 g, 4° C.) and the protein concentration was determined by the BCA method. Cytokines in the serum and supernatant of brain were detected according to the manufacturer's instruction. […]
# IL-17 = experiment: ELISA of IL-17 in the brain; format: in vivo, mouse
# Method: as §1
# IL-10, IL-17, IL-1β and IL-6 in the serum and brain were detected by using ELISA kits (catalog number: M1000B, M1700, MLB00C and D6050, R&D SYSTEM, Inc., Minneapolis, MN, USA) as we described before. The brain tissues were homogenized on ice in the RIPA buffer containing 25 mM Tris-HCl with pH 7.6, 150 mM NaCl, 1% sodium deoxycholate and 0.1% SDS (catalog number: 89901, Thermo Scientific, Rockford, IL, USA) and a protease inhibitor cocktail containing 10 mg/ml aproteinin, 5 mg/ml peptastin, 5 mg/ml leupetin and 1 mM phenylmethane sulfonylfluoride (catalog number: SRE0055, Sigma-Aldrich, St. Louis, MO, USA). The supernatant was collected for ELISA detection after being centrifuged for 20 min (13,000 g, 4° C.) and the protein concentration was determined by the BCA method. Cytokines in the serum and supernatant of brain were detected according to the manufacturer's instruction. The amount of IL-10, IL-17, IL-1β and IL-6 in each sample in the brain was normalized by its protein content.
# [1] = references [27, 32]; cited from earlier work
compound,measurement,setting,value
CCCCC(=O)O [valeric acid],performance in novel object recognition test,"C57BL/6J mice; 13-week old mice without surgery, intracerebroventricular 4 mg/kg once daily for 4 days (1/50 dose of intraperitoneal injection)",did not affect the performance
same,performance in novel object recognition test,"C57BL/6J mice; young adult mice with exercise and surgery, valeric acid 200 mg/kg intraperitoneal once a week vs normal saline",abolished
same,C3 in the brain (hippocampus),"C3; 9-week old control mice, intraperitoneal valeric acid vs normal saline",increased
same,exercise-induced reduction of C3 in the hippocampus,"C3; young adult mice with exercise and surgery, intraperitoneal valeric acid",this reduction was blocked
same,exercise-induced reduction of Iba-1 in the hippocampus,Iba-1,this reduction was blocked
same,IL-6 in the blood,IL-6,increased
same,IL-17 in the brain (cerebral cortex),"IL-17; mice without MCAO, valeric sodium 100 mg/kg intraperitoneal for 7 days",increase
same,IL-17 in the brain,"IL-17; young mice with brain ischemia (120-min MCAO), intraperitoneal valeric acid",did not increase
same,crossing of blood-brain barrier,[1],can cross blood-brain barrier
